Results on three compounds are retold here after PMC13575467, “Structural and functional characterisation of a reconstructed ancestral strigolactone receptor” (The Plant Journal, 2026).

The target of test [1] is T1, AtD14 (Arabidopsis thaliana, UniProt Q9SQR3).
T1 construct: gene D14; E. coli codon-optimised, 6xHis-SUMO fusion (pE-SUMO-Amp) from E. coli Rosetta, Ni-NTA, tag kept in assays
T1 sequence (Q9SQR3 1-267): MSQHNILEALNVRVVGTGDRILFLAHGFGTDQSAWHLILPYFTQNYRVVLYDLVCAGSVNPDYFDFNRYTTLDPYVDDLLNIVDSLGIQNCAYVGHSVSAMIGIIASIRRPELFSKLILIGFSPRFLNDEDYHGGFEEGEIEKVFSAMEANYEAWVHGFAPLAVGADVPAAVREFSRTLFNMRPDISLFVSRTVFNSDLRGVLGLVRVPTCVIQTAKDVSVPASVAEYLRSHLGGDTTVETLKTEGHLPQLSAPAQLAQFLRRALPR
Kind of test: competition of dYLG hydrolysis. The format is biochemical. The following applies: 5 μM dYLG, 0-50 μM competitor, 100 ng protein.

The target in test [2] is T2, ancD14 (ancestral D14) (synthetic construct, UniProt Z9A6V6BWX9).
T2 sequence (Z9A6V6BWX9 1-265): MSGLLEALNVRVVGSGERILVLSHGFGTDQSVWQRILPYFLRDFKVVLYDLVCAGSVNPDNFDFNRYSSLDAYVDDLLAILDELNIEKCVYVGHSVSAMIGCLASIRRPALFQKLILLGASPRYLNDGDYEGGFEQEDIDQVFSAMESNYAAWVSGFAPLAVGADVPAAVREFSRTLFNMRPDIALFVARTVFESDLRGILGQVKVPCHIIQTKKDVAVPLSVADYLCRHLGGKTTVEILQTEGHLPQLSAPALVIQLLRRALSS
Put plainly: differential scanning fluorimetry. The following applies: Tm lowered (destabilisation); ligand 0-200 μM. The format is binding.

For test [3], the target named is T2, ancD14 (ancestral D14). Put plainly: competition of dYLG hydrolysis. The following applies: 5 μM dYLG, 0-50 μM competitor, 100 ng protein. The format is biochemical.
Test [4] concerns the target T1, AtD14. Put plainly: differential scanning fluorimetry. The format is binding. The following applies: Tm lowered (destabilisation); ligand 0-200 μM. A general note: Differential scanning fluorimetry follows unfolding on heating by fluorescence.
The target of test [5] is T1, AtD14. Put plainly: differential scanning fluorimetry. The format is binding. The following applies: Tm lowered (destabilisation); ligand 0-200 μM. This is another data set of the same source.
The target of test [6] is T2, ancD14 (ancestral D14). Kind of test: differential scanning fluorimetry. The following applies: Tm lowered (destabilisation); ligand 0-200 μM. The format is binding. This is another data set of the same source.

As to `O=C1C=C[C@@H](O/C=C2/C(=O)O[C@H]3c4ccccc4C[C@@H]23)O1` [dGR24^ent-5DS], at AtD14 [1], the IC50 entry is “AtD14 activity was inhibited by all four enantiomers”.
Regarding `CC1=C[C@@H](O/C=C2/C(=O)O[C@H]3c4ccccc4C[C@@H]23)OC1=O` [GR24^ent-5DS], the dTm result is “albeit with a comparatively muted response to GR24^ ent‐5DS” at ancD14 (ancestral D14) [2]; “AtD14 was thermally destabilised by both GR24^5DS and GR24^ ent‐5DS” at AtD14 [4]. In addition, the IC50 entry on AtD14 [1] was “AtD14 activity was inhibited by all four enantiomers”; on ancD14 (ancestral D14) [3], “GR24^ ent‐5DS also competed well with ancD14”.
`CC1=C[C@H](O/C=C2/C(=O)O[C@@H]3c4ccccc4C[C@H]23)OC1=O` [GR24^5DS]: on AtD14 [1], the IC50 entry is “GR24^5DS was a very effective competitor for AtD14”. Besides, the “dTm (decrease in melting temperature)” value on AtD14 [5] was determined as 6.1 °C; on ancD14 (ancestral D14) [6], 6.6 °C.
